B1: α-ketoglutarate-semialdehyde dehydrogenase from Azospirillum basilensis (AbKGSADH) (enzyme, UniProt Q1JUP4 1-481, looked up)
chain: MANVTYTDTQLLIDGEWVDAASGKTIDVVNPATGKPIGRVAHAGIADLDRALAAAQSGFEAWRKVPAHERAATMRKAAALVRERADAIAQLMTQEQGKPLTEARVEVLSAADIIEWFADEGRRVYGRIVPPRNLGAQQTVVKEPVGPVAAFTPWNFPVNQVVRKLSAALATGCSFLVKAPEETPASPAALLRAFVDAGVPAGVIGLVYGDPAEISSYLIPHPVIRKVTFTGSTPVGKQLASLAGLHMKRATMELGGHAPVIVAEDADVALAVKAAGGAKFRNAGQVCISPTRFLVHNSIRDEFTRALVKHAEGLKVGNGLEEGTTLGALANPRRLTAMASVIDNARKVGASIETGGERIGSEGNFFAPTVIANVPLDADVFNNEPFGPVAAIRGFDKLEEAIAEANRLPFGLAGYAFTRSFANVHLLTQRLEVGMLWINQPATPWPEMPFGGVKDSGYGSEGGPEALEPYLVTKSVTVMAV
notes: α-ketoglutarate-semialdehyde dehydrogenase (KGSADH) of the alternative L-arabinose pathway, Azospirillum brasilense; the limits Met1 and Val481 are those of the domains told for the crystal structure; The vector adds a 6xHis tag and an rTEV protease site at the N-terminus; no cleavage step is described; also called aldehyde dehydrogenase from Azospirillum brasilense; 3-HP producing ALDH; source: …

Columns and labels:
[1] = target: T1, AbKGSADH (α-ketoglutarate-semialdehyde dehydrogenase) (Azospirillum brasilense, UniProt Q1JUP4); experiment: X-ray crystal structure, […] Å in Table […] ([…] Å in text); conditions: NAD-binding site between N- and C-terminal domains
T1 construct: gene araE; Met1-Val481 modelled; tetramer about 200 kDa

[2] = target: the molecule itself; experiment: crystal structure; apo-form and complex with NAD+; space group P4(3)22, two molecules in the asymmetric unit, tetramer generated by crystallographic two-fold symmetry; crystals from 16% PEG 3350, 0.1 M sodium cacodylate pH 6.5, 0.2 M MgCl2, 295 K

Row | Molecule | X-ray crystal structure, 2.30 Å in Table 1 (2.6 Å in text) [1] | stoichiometry N [2]
1 | NC(=O)c1ccc[n+]([C@@H]2O[C@H](COP(=O)(O)OP(=O)(O)OC[C@H]3O[C@@H](n4cnc5c(N)ncnc54)[C@H](O)[C@@H]3O)[C@@H](O)[C@H]2O)c1 [NAD^+] | determined the crystal structure of the protein in complex with NAD^+ | 
2 | B1 |  | 4

From article PMC5385487, “Structural insights into the production of 3-hydroxypropionic acid by aldehyde dehydrogenase from Azospirillum brasilense” (Scientific Reports, 2017)
